Results: article PMC5984089, “FBXW7 regulates DISC1 stability via the ubiquitin-proteosome system” (Molecular Psychiatry, 2017)
Residues, ends and D or L forms follow the SMILES beside them. *: point of attachment. Cbz = O=C(OCc1ccccc1)*

Tested on: DISC1, neural progenitors derived from patients carrying a 4-bp deletion in the DISC1 gene
Test: DISC1 protein level in patient iPS-derived neural progenitors (DISC1 frameshift, 4-bp deletion), western blot
Assay type: cell-based, human
Text: All iPS derived neural progenitors were provided by Pfizer Neuroscience (Cambridge, MA, USA). The iPS cell lines D2 and D3 and family control cell line C1 were generated using a non-integrated approach by Dr Hongjun Song at Johns Hopkins University and cultured as described previously.[8] The Detroit iPS cell line was generated by Dr S. Engle at Pfizer Neuroscience. Detroit 551 fibroblasts were obtained from ATCC (CCL-110) and maintained in Knockout DMEM (Life Technologies 10829-018), 15% FBS (Life Technologies), 1x Non-essential amino acids (Life Technologies 11140-050), 2 mM L-glutamine (Life Technologies 25030-081), 1x Gentamicin (Life Technologies 15710-072), 0.1 mM β-mercaptoethanol (Sigma M-7522). The cells were reprogrammed with individual lentiviruses expressing c-MYC, KLF4, SOX2, OCT3/4, NANOG, and LIN28. One colony, Detroit 551-3, with ES-like morphology, high expression of pluripotency markers (for example, OCT3/4, TRA-1-60, TRA-1-81, SSEA4), a normal karyotype, […] the ability to form all three germ layers in a teratoma assay was used in all subsequent experiments. […]

SMILES: CC(C)C[C@@H](C=O)NC(=O)[C@H](CC(C)C)NC(=O)[C@H](CC(C)C)NC(=O)OCc1ccccc1 [MG132] (Cbz-Leu-Leu-Leu-aldehyde)
- DISC1 protein level in NPs from D2-1 (patient) iPS cells, proteasomal inhibition (MG132 10 µM, day 18, up to 3 hours, n=2, western blot): stabilization of DISC1 protein levels within first 30 min up to 3 hours
- DISC1 level in patient-derived NP cells after MG132 (MG132, Supplementary Figure 10D): could be enhanced by MG132 treatment
